By kinact is commonly meant the maximal first-order rate at which the target is inactivated. Broadly, the Ki is a dissociation constant, usually derived from enzyme kinetics or from competition with a known ligand. A low value points to tighter binding. Usually Km stands for the substrate concentration at which the rate is half of its maximum.

The target in series [1] is T1, Adenosylhomocysteinase (Rattus norvegicus) (UniProt P10760).
T1 sequence (whole entry): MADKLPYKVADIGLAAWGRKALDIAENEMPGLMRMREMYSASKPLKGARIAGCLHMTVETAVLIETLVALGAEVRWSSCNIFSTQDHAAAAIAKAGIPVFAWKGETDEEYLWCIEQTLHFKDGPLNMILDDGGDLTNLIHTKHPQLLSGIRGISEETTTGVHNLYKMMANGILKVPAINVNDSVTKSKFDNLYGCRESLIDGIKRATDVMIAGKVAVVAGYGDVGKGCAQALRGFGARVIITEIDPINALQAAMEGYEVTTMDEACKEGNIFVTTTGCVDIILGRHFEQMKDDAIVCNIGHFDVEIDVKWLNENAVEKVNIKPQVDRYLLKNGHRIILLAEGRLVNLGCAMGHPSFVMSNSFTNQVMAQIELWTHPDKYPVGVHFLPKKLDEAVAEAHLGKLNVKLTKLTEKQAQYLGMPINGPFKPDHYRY
Description: Inhibitory activity against rat liver S-adenosyl-L-homocysteine hydrolase.

The target of another series is T2, Adenosylhomocysteinase (Rattus norvegicus, UniProt P10760).
T2 sequence (P10760 whole entry): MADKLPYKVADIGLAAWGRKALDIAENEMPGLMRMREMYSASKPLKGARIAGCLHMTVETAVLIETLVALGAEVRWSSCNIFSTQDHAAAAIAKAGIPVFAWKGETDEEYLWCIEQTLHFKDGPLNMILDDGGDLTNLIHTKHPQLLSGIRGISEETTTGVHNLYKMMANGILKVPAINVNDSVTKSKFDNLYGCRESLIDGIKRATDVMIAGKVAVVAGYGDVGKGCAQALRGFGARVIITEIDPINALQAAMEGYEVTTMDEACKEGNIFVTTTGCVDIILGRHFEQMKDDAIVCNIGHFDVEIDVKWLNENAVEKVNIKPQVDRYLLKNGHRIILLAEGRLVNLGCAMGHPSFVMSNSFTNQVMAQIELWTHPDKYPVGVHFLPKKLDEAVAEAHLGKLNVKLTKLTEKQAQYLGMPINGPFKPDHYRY
Description: Inhibitory constant against rat liver S-adenosyl-L-homocysteine hydrolase.

Substrate in series [2]: Nc1ncnc2c1ncn2C1O[C@](F)(CO)[C@@H](O)[C@H]1O
The experiment in a line: Michaelis constant towards rat liver S-adenosyl-L-homocysteine hydrolase was calculated.

With `Nc1ncnc2c1ncn2C1O[C@](F)(CO)[C@@H](O)[C@H]1O` (stereo partly drawn), the kinact in series [1] was 0.24 min⁻¹. The molecule further yielded a Ki at Adenosylhomocysteinase of 166 µM.

B1: Adenosylhomocysteinase (Rattus norvegicus), P10760 (protein)
chain: MADKLPYKVADIGLAAWGRKALDIAENEMPGLMRMREMYSASKPLKGARIAGCLHMTVETAVLIETLVALGAEVRWSSCNIFSTQDHAAAAIAKAGIPVFAWKGETDEEYLWCIEQTLHFKDGPLNMILDDGGDLTNLIHTKHPQLLSGIRGISEETTTGVHNLYKMMANGILKVPAINVNDSVTKSKFDNLYGCRESLIDGIKRATDVMIAGKVAVVAGYGDVGKGCAQALRGFGARVIITEIDPINALQAAMEGYEVTTMDEACKEGNIFVTTTGCVDIILGRHFEQMKDDAIVCNIGHFDVEIDVKWLNENAVEKVNIKPQVDRYLLKNGHRIILLAEGRLVNLGCAMGHPSFVMSNSFTNQVMAQIELWTHPDKYPVGVHFLPKKLDEAVAEAHLGKLNVKLTKLTEKQAQYLGMPINGPFKPDHYRY
With B1, in series [2], the Km is 1 µM.

The values are drawn from ChEMBL document CHEMBL1128653, “Synthesis of 4-fluoroadenosine as an inhibitor of S-adenosyl-L-homocysteine hydrolase” (Bioorg Med Chem Lett, 1995).
